Experimental data as given in ChEMBL document CHEMBL1909046, “DrugMatrix in vitro pharmacology data”.
Where a SMILES comes first, the peptide text is derived from it. Bridges are numbered along the chain shown (N, C = ends). [ ]: non-standard residue; d: D form. The star is where a group is joined. Threoninol(2S,3R) = C[C@@H](O)[C@H](CO)N*

What was measured:
[1] = molecular target: T1, Neuropeptide Y receptor type 1 (Homo sapiens, UniProt P25929); assay type: cell membranes, Membrane; settings: sk-n-mc; further: in other assays of this panel Not Active means under 50% inhibition at 10 µM
T1 sequence (P25929 whole entry): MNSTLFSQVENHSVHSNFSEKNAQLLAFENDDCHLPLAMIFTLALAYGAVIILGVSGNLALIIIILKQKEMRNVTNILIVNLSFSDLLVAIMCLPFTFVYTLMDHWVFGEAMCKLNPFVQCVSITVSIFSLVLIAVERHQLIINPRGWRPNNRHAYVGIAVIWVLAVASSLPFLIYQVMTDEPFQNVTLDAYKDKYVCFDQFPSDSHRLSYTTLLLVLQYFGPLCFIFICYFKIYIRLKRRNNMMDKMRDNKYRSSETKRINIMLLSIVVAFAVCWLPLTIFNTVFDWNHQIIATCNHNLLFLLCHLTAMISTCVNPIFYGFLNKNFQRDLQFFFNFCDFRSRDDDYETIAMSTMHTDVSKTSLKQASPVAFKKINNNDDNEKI

Cannabinoid receptor 1 = Cannabinoid receptor 1 (Homo sapiens, UniProt P21554); assay type: cell membranes, Chem-1, Membrane; settings: chem-1; further: in other assays of this panel Not Active means under 50% inhibition at 10 µM
Cannabinoid receptor 1, sequence (P21554 whole entry): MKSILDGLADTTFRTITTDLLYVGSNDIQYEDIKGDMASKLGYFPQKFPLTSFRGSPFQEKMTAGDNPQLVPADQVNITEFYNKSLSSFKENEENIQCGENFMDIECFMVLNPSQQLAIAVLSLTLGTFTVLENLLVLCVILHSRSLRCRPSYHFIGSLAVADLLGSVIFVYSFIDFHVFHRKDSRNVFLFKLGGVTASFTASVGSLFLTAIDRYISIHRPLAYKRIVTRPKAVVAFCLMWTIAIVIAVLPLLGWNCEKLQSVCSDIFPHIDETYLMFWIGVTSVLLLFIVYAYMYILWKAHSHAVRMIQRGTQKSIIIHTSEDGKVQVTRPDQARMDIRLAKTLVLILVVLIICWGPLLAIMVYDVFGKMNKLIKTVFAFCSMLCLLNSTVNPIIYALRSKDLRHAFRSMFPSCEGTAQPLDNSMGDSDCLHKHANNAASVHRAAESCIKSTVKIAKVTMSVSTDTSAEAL

[2] = molecular target: T2, Neuropeptide Y receptor type 2 (Homo sapiens, UniProt P49146); assay type: cell membranes, Membrane; settings: kan-ts; further: in other assays of this panel Not Active means under 50% inhibition at 10 µM
T2 sequence (P49146 whole entry): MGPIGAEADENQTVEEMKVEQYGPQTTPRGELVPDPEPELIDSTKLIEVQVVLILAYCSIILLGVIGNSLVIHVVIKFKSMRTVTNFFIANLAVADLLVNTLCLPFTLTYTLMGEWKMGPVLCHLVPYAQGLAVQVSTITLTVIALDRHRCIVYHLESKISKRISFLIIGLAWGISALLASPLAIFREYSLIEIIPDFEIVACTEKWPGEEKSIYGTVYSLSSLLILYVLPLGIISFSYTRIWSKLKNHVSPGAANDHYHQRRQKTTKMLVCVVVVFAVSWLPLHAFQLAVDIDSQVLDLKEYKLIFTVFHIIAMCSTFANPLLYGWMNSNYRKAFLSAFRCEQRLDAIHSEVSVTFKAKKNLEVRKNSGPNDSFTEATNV

[3] = molecular target: C-C chemokine receptor type 5 (Homo sapiens, UniProt P51681); assay type: cell membranes, HEK293, Membrane; settings: hek293; further: in other assays of this panel Not Active means under 50% inhibition at 10 µM
C-C chemokine receptor type 5, sequence (P51681 whole entry): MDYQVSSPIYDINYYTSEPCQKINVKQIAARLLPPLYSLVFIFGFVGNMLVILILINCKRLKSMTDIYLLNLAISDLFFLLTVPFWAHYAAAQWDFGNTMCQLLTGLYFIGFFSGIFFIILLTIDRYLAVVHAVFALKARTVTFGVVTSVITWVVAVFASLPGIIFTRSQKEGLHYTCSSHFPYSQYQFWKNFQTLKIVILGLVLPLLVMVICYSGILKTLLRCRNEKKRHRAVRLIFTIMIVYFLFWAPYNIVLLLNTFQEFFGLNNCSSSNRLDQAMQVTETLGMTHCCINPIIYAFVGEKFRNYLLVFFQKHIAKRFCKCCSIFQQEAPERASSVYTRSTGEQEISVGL

[4] = molecular target: T3, Polyunsaturated fatty acid lipoxygenase ALOX15 (Oryctolagus cuniculus, UniProt P12530); experiment: biochemical; assay type: tissue-based, Reticulocytes
T3 sequence (P12530 whole entry): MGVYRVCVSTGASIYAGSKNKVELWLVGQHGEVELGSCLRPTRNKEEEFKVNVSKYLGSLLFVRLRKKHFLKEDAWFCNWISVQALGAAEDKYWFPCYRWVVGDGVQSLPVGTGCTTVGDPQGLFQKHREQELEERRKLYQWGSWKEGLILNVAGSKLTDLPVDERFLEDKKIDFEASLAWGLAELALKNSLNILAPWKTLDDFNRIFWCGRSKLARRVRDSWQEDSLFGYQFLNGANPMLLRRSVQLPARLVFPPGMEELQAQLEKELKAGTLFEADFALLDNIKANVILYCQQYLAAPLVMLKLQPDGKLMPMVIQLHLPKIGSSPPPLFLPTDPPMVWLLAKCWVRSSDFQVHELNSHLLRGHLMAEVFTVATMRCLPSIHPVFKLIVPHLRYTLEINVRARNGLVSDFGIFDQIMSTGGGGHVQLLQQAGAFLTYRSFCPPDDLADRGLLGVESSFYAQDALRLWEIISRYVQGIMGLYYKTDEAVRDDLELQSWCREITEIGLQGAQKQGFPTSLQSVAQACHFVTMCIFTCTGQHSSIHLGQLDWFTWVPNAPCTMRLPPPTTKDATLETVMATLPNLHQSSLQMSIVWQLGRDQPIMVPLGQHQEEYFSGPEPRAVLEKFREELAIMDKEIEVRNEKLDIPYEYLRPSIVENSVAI

[5] = molecular target: T4, C-C chemokine receptor type 4 (Homo sapiens, UniProt P51679); assay type: cell membranes, Membrane; settings: chem-1; further: in other assays of this panel Not Active means under 50% inhibition at 10 µM
T4 sequence (P51679 whole entry): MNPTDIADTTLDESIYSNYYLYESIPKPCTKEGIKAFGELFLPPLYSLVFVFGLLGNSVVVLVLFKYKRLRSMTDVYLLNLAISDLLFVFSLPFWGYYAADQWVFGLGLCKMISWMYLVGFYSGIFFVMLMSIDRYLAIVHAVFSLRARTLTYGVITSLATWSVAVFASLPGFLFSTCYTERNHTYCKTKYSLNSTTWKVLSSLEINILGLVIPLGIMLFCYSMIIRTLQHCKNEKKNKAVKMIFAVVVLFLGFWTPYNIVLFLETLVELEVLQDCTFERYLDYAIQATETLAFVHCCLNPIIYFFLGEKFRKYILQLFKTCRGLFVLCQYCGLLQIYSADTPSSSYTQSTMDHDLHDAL

[6] = DRUGMATRIX: GABAA, Flunitrazepam, Central radioligand binding (ligand: [3H] Flunitrazepam); assay type: cell membranes, Rattus norvegicus, Wistar, Brain, Membrane; settings: Not Active = under 50% inhibition at 10 µM
[7] = molecular target: Aldo-keto reductase family 1 member B1 (Rattus norvegicus, UniProt P07943); experiment: biochemical; assay type: tissue-based, Lens of camera-type eye

Structure (SMILES) | IC50 [1] | IC50 (Cannabinoid receptor 1) | IC50 [2] | IC50 [3] | IC50 ([4]; reticulocytes) | IC50 [5] | IC50 [6] | Ki [6] | IC50 [7] | IC50 ([4]; read-out: IC50) [µM] | Ki [1] | Ki (Cannabinoid receptor 1) | Ki [2] | Ki [3] | Ki ([4]; reticulocytes) | Ki [5] | Ki [7]
COc1ccccc1C(=O)N1CCC(Cc2ccccc2)CC1 | Not Active | Not Active | Not Active | Not Active | Not Active | Not Active | Not Active | Not Active | Not Active | – | – | – | – | – | – | – | –
Cc1ccccc1C(=O)N1CCC(Cc2ccccc2)CC1 | Not Active | Not Active | Not Active | Not Active | Not Active | Not Active | Not Active | Not Active | Not Active | – | – | – | – | – | – | – | –
O=C1CC[C@H](N2C(=O)c3ccccc3C2=O)C(=O)N1 | Not Active | Not Active | Not Active | Not Active | Not Active | Not Active | Not Active | Not Active | Not Active | – | – | – | – | – | – | – | –
N=C(Nc1ccccc1)Nc1ccccc1 | Not Active | Not Active | Not Active | Not Active | Not Active | Not Active | Not Active | Not Active | Not Active | – | – | – | – | – | – | – | –
C[C@@H](O)[C@H](CO)NC(=O)[C@@H]1CSSC[C@H](NC(=O)[C@H](N)Cc2ccccc2)C(=O)N[C@@H](Cc2ccccc2)C(=O)N[C@H](Cc2c[nH]c3ccccc23)C(=O)N[C@@H](CCCCN)C(=O)N[C@@H]([C@@H](C)O)C(=O)N1 (H-[dF]CF[dW]KTC-{Threoninol(2S,3R)}; disulfide 2-7) | Not Active | Not Active | Not Active | Not Active | Not Active | Not Active | Not Active | Not Active | Not Active | – | – | – | – | – | – | – | –
S=C=Nc1cccc2ccccc12 [1-NAPHTHYLISOTHIOCYANATE] | Not Active | Not Active | Not Active | Not Active | Not Active | Not Active | Not Active | Not Active | Not Active | – | – | – | – | – | – | – | –
C[C@](O)(CS(=O)(=O)c1ccc(F)cc1)C(=O)Nc1ccc(C#N)c(C(F)(F)F)c1 [(R)-BICALUTAMIDE] | Not Active | Not Active | Not Active | Not Active | Not Active | Not Active | Not Active | Not Active | Not Active | – | – | – | – | – | – | – | –
CCCC(=O)Nc1ccc(OCC(O)CNC(C)C)c(C(C)=O)c1 (stereo unspecified) [ACEBUTOLOL] | Not Active | Not Active | Not Active | Not Active | Not Active | Not Active | Not Active | Not Active | Not Active | – | – | – | – | – | – | – | –
CC(=O)Nc1ccc(O)cc1 [ACETAMINOPHEN] | Not Active | Not Active | Not Active | Not Active | – | Not Active | Not Active | Not Active | Not Active | 28.4 | – | – | – | – | – | – | –
COc1cc2c(c3oc(=O)c4c(c13)CCC4=O)[C@@H]1C=CO[C@@H]1O2 [AFLATOXIN] | Not Active | Not Active | Not Active | Not Active | Not Active | Not Active | Not Active | Not Active | Not Active | – | Not Active | Not Active | Not Active | Not Active | Not Active | Not Active | Not Active
N=C(N)NC(=O)c1nc(Cl)c(N)nc1N [AMILORIDE] | Not Active | Not Active | Not Active | Not Active | Not Active | Not Active | Not Active | Not Active | Not Active | – | – | – | – | – | – | – | –
Cc1cc(=O)n(-c2ccccc2)n1C [ANTIPYRINE] | Not Active | Not Active | Not Active | Not Active | Not Active | Not Active | Not Active | Not Active | Not Active | – | – | – | – | – | – | – | –
CN1C(=O)COc2c(C(=O)NC3CN4CCC3CC4)cc(Cl)cc21 (stereo unspecified) [AZASETRON] | Not Active | Not Active | Not Active | Not Active | Not Active | Not Active | Not Active | Not Active | Not Active | – | – | – | – | – | – | – | –
C[C@H]1C[C@H]2[C@@H]3CCC4=CC(=O)C=C[C@]4(C)[C@@]3(Cl)[C@@H](O)C[C@]2(C)[C@@]1(O)C(=O)CO [BECLOMETHASONE] | Not Active | Not Active | Not Active | Not Active | Not Active | Not Active | Not Active | Not Active | Not Active | – | – | – | – | – | – | – | –
CCOC(=O)[C@H](CCc1ccccc1)N[C@H]1CCc2ccccc2N(CC(=O)O)C1=O [BENAZEPRIL] | Not Active | Not Active | Not Active | Not Active | Not Active | Not Active | Not Active | Not Active | Not Active | – | – | – | – | – | – | – | –
Nc1c(CC(=O)O)cccc1C(=O)c1ccc(Br)cc1 [BROMFENAC] | Not Active | Not Active | Not Active | Not Active | Not Active | Not Active | Not Active | Not Active | Not Active | – | – | – | – | – | – | – | –
CCCCN1CCCCC1C(=O)Nc1c(C)cccc1C.Cl (stereo unspecified) [BUPIVACAINE HYDROCHLORIDE] | Not Active | Not Active | Not Active | Not Active | Not Active | Not Active | Not Active | Not Active | Not Active | – | – | – | – | – | – | – | –
O=C1CC2(CCCC2)CC(=O)N1CCCCN1CCN(c2ncccn2)CC1 [BUSPIRONE] | Not Active | Not Active | Not Active | Not Active | Not Active | Not Active | Not Active | Not Active | Not Active | – | – | – | – | – | – | – | –
C[C@@]12C(=O)OC(=O)[C@]1(C)[C@H]1CC[C@@H]2O1 [CANTHARIDIN] | Not Active | Not Active | Not Active | Not Active | Not Active | Not Active | Not Active | Not Active | Not Active | – | – | – | – | – | – | – | –
O=NN(CCCl)C(=O)NCCCl [CARMUSTINE] | Not Active | Not Active | Not Active | Not Active | Not Active | Not Active | Not Active | Not Active | Not Active | – | – | – | – | – | – | – | –
CC1=C(C(=O)O)N2C(=O)[C@@H](NC(=O)[C@H](N)c3ccccc3)[C@H]2SC1 [CEPHALEXIN ANHYDROUS] | Not Active | Not Active | Not Active | Not Active | Not Active | Not Active | Not Active | Not Active | Not Active | – | – | – | – | – | – | – | –
